Experimental data: patent publication US20090311237A1, “Combination therapy using a soluble hyaluronidase and a bisphosphonate” (priority 2008, published 2009)

Assays:
[1] = IV infusion; cited from earlier work
Sprague Dawley rats = test: Semi-quantitative histopathology of skin at injection site after ID zoledronic acid with or without rHuPH20; format: in vivo; parameters: key: —: Dash indicates no incidence of the indicated observation; conditions: rat ID; ZA 0.4 mg/mL; rHuPH20 0 U/ml; 4 days
Experimental: Nine to ten week old female Sprague Dawley rats, having approximate body weight of 200-250 grams, were employed for the study. One day prior to injection, rats were shaved and hair on the back and flank area were removed by Nair® cream (exposure less than 1 min to depilation cream) followed by deep wash with warm tap water. On the day of dosing, all rats were injected intradermally in flank area (one or two injection spots per side), with 0.1 or 0.2 mL as indicated of zoledronic acid solution, with or without rHuPH20, at each corresponding concentration as shown in study design table. Injection site appearance was observed and quantified by blind assessment each day following the injection until the end of the study, at which time animals were sacrificed and the skin around the dosing area as well as a part of the skin that was not effected by the dosing were collected and fixed in 10% neutral buffered formalin (NBF) and further embedded in paraffin, 5 μm sections were cut for H&E stain and histopathology evaluation.
Lesion area was calculated by the following formula: W×L×¼π. Quantitative results were analyzed using one-way analysis of variance (ANOVA) method, followed by Dunnett's comparison method (Prizm 4 program). […] Histopathologic findings were characterized by semi-quantitative analysis of necrosis and infiltration in the skin tissue. […]

## O=P(O)(O)C(O)(Cn1ccnc1)P(=O)(O)O [ZA, 1-hydroxy-2-(1H-imidazol-1-yl)ethylidene-1,1-bisphosphonic acid]
[1]
  patients with skin irritation at the injection site: 1%
Sprague Dawley rats
  Necrosis: Superficial dermis: —
